This test addresses T1, GlyT1 (Homo sapiens, UniProt P48067).
T1 construct: expressed in transfected cells
T1 sequence (P48067 1-706): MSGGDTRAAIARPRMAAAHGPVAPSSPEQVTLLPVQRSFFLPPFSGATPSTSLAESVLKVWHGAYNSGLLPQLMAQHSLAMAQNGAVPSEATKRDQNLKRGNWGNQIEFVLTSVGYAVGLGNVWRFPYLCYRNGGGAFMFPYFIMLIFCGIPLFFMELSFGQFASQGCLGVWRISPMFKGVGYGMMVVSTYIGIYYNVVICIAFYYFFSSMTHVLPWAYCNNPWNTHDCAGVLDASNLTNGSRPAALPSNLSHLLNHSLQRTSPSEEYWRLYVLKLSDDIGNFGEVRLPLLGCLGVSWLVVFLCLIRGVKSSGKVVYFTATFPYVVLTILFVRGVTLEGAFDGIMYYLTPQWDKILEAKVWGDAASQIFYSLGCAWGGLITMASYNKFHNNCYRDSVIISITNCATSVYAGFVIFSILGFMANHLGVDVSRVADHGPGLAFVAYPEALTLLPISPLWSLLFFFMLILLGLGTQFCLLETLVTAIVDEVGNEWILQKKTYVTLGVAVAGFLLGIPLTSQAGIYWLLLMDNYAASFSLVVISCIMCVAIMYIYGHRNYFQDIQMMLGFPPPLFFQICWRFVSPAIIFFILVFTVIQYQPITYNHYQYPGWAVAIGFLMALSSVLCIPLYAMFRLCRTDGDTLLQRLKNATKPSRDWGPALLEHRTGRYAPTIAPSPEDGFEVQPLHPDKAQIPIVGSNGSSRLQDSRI
The test is described as follows: Glycine Transporter 1 (GlyT1) uptake assay, scintillation proximity assay of [14C]-glycine uptake. It is filed as cell-based. As to conditions: SPA, four parameter logistic fit, read-out: GlyT1 (pIC50) (converted). Here is the method: Glycine Transporter 1 (GlyT1) Uptake Assay
Plates were then read on a MicroBeta plate counter (Perkin Elmer). Dose-response data for tested compounds were analyzed and curves were fit using a four parameter logistic fit to determine IC50 values. […]
(SPA uses beads or plates that emit light when radiolabelled molecules are held near them.)
Take `CC(C)Oc1ccc(S(C)(=O)=O)cc1C(=O)N1Cc2cn(-c3cccc(C(F)(F)F)c3F)nc2C1` [Example 46, 2-[2-Fluoro-3-(trifluoromethyl)phenyl]-5-[5-methanesulfonyl-2-(propan-2-yloxy)benzoyl]-2H 4H 5H 6H-pyrrolo[3,4-c]pyrazole]: the IC50 is below 100 nM.

On to `CC(C)Oc1ccc(S(C)(=O)=O)cc1C(=O)N1Cc2cn(-c3cccc(C(F)(F)F)c3)nc2C1` [Example 47, 5-[5-Methanesulfonyl-2-(propan-2-yloxy)benzoyl]-2-[3-(trifluoromethyl)phenyl]-2H 4H 5H 6H-pyrrolo[3,4-c]pyrazole], for which the IC50 was below 100 nM.

In the case of `CC(C)(C)COc1ccc(S(C)(=O)=O)cc1C(=O)N1Cc2cn(-c3ccccc3)nc2C1` [Example 48, 5-[2-(2 2-Dimethylpropoxy)-5-methanesulfonylbenzoyl]-2-phenyl-2H 4H 5H 6H-pyrrolo[3,4-e]pyrazole], the IC50 is below 100 nM.

As for `CC(C)(C)COc1ccc(S(C)(=O)=O)cc1C(=O)N1Cc2cn(-c3cccc(C(F)(F)F)c3F)nc2C1` [Example 49, 5-[2-(2 2-Dimethylpropoxy)-5-methanesulfonylbenzoyl]-2-[2-fluoro-3-(trifluoromethyl)phenyl]-2H 4H 5H 6H-pyrrolo[3,4-c]pyrazole], the IC50 is below 100 nM.

Turning to `CC(C)(C)COc1ccc(S(C)(=O)=O)cc1C(=O)N1Cc2cn(-c3cccc(C(F)(F)F)c3)nc2C1` [Example 50, 5-[2-(2 2-Dimethylpropoxy)-5-methanesulfonylbenzoyl]-2-[3-(trifluoromethyl)phenyl]-2H 4H 5H 6H-pyrrolo[3,4-c]pyrazole], the IC50 was below 100 nM.

Regarding `CC(C)COc1ccc(S(C)(=O)=O)cc1C(=O)N1Cc2cn(-c3ccccc3)nc2C1` [Example 51, 5-[5-Methanesulfonyl-2-(2-methylpropoxy)benzoyl]-2-phenyl-2H 4H 5H 6H-pyrrolo[3,4-c]pyrazole], the IC50 is below 100 nM.

For `CC(C)COc1ccc(S(C)(=O)=O)cc1C(=O)N1Cc2cn(-c3cccc(C(F)(F)F)c3F)nc2C1` [Example 52, 2-[2-Fluoro-3-(trifluoromethyl)phenyl]-5-[5-methanesulfonyl-2-(2-methylpropoxy)benzoyl]-2H 4H 5H 6H-pyrrolo[3,4-c]pyrazole], the IC50 is below 100 nM.

For `CC(C)COc1ccc(S(C)(=O)=O)cc1C(=O)N1Cc2cn(-c3cccc(C(F)(F)F)c3)nc2C1` [Example 53, 5-[5-Methanesulfonyl-2-(2-methylpropoxy)benzoyl]-2-[3-(trifluoromethyl)phenyl]-2H 4H 5H 6H-pyrrolo[3,4-c]pyrazole], the IC50 was below 100 nM.

With `CS(=O)(=O)c1ccc(N2CCC(F)(F)CC2)c(C(=O)N2Cc3cn(-c4ccccc4)nc3C2)c1` [Example 54, 4 4-Difluoro-1-(4-methanesulfonyl-2-{2-phenyl-2H 4H 5H 6H-pyrrolo[3,4-c]pyrazole-5-carbonyl}phenyl)piperidine], the IC50 is below 100 nM.

Regarding `CS(=O)(=O)c1ccc(N2CCC(F)(F)CC2)c(C(=O)N2Cc3cn(-c4cccc(C(F)(F)F)c4)nc3C2)c1` [Example 55, 4 4-Difluoro-1-(4-methanesulfonyl-2-{2-[3-(trifluoromethyl)phenyl]-2H 4H 5H 6H-pyrrolo[3,4-e]pyrazole-5-carbonyl}phenyl)piperidine], the IC50 was below 100 nM.

Turning to `CS(=O)(=O)c1ccc(N2CCC(F)(F)CC2)c(C(=O)N2Cc3cn(-c4ccc(F)cc4)nc3C2)c1` [Example 56, 4 4-Difluoro-1-{2-[2-(4-fluorophenyl)-2H 4H 5H 6H-pyrrolo[3,4-c]pyrazole-5-carbonyl]-4-methanesulfonylphenyl}piperidine], the IC50 is below 100 nM.

With `Cc1c(F)ccc(-n2cc3c(n2)CN(C(=O)c2cc(S(C)(=O)=O)ccc2O[C@@H](C)C(F)(F)F)C3)c1F` [Example 58, 2-(2 4-Difluoro-3-methylphenyl)-5-(5-methanesulfonyl-2-{[(2S)-1 1 1-trifluoropropan-2-yl]oxy}benzoyl)-2H 4H 5H 6H-pyrrolo[3,4-c]pyrazole], the IC50 is below 100 nM.

`C[C@H](Oc1ccc(S(C)(=O)=O)cc1C(=O)N1Cc2cn(-c3cc(Cl)ccc3F)nc2C1)C(F)(F)F` [Example 59, 2-(5-Chloro-2-fluorophenyl)-5-(5-methanesulfonyl-2-{[(2S)-1 1 1-trifluoropropan-2-yl]oxy}benzoyl)-2H 4H 5H 6H-pyrrolo[3,4-c]pyrazole]: the IC50 was below 100 nM.

Take `CC(C)Oc1ccc(S(C)(=O)=O)cc1C(=O)N1Cc2cn(-c3ccccc3F)nc2C1` [Example 60, 2-(2-Fluorophenyl)-5-[5-methanesulfonyl-2-(propan-2-yloxy)benzoyl]-2H 4H 5H 6H-pyrrolo[3,4-c]pyrazole]: the IC50 is below 100 nM.

On to `Cc1c(F)ccc(-n2cc3c(n2)CN(C(=O)c2cc(S(C)(=O)=O)ccc2OC(C)C)C3)c1F` [Example 61, 2-(2 4-Difluoro-3-methylphenyl)-5-[5-methanesulfonyl-2-(propan-2-yloxy)benzoyl]-2H 4H 5H 6H-pyrrolo[3,4-c]pyrazole], for which the IC50 is below 100 nM.

Consider `CC(C)Oc1ccc(S(C)(=O)=O)cc1C(=O)N1Cc2cn(-c3cc(Cl)ccc3F)nc2C1` [Example 62, 2-(5-Chloro-2-fluorophenyl)-5-[5-methanesulfonyl-2-(propan-2-yloxy)benzoyl]-2H 4H 5H 6H-pyrrolo[3,4-c]pyrazole], for which the IC50 is below 100 nM.

For `CC(C)(C)COc1ccc(S(C)(=O)=O)cc1C(=O)N1Cc2cn(-c3ccccc3F)nc2C1` [Example 63, 5-[2-(2 2-Dimethylpropoxy)-5-methanesulfonylbenzoyl]-2-(2-fluorophenyl)-2H 4H 5H 6H-pyrrolo[3,4-c]pyrazole], the IC50 was below 100 nM.

In the case of `Cc1c(F)ccc(-n2cc3c(n2)CN(C(=O)c2cc(S(C)(=O)=O)ccc2OCC(C)(C)C)C3)c1F` [Example 64, 2-(2 4-Difluoro-3-methylphenyl)-5-[2-(2 2-dimethylpropoxy)-5-methanesulfonylbenzoyl]-2H 4H 5H 6H-pyrrolo[3,4-c]pyrazole], the IC50 is below 100 nM.

For the compound `CC(C)(C)COc1ccc(S(C)(=O)=O)cc1C(=O)N1Cc2cn(-c3cc(Cl)ccc3F)nc2C1` [Example 65, 2-(5-Chloro-2-fluorophenyl)-5-[2-(2 2-dimethylpropoxy)-5-methanesulfonylbenzoyl]-2H 4H 5H 6H-pyrrolo[3,4-c]pyrazole], the IC50 is below 100 nM.

With `CC(C)COc1ccc(S(C)(=O)=O)cc1C(=O)N1Cc2cn(-c3ccccc3F)nc2C1` [Example 66, 2-(2-Fluorophenyl)-5-[5-methanesulfonyl-2-(2-methylpropoxy)benzoyl]-2H 4H 5H 6H-pyrrolo[3,4-c]pyrazole], the IC50 is below 100 nM.

As for `Cc1c(F)ccc(-n2cc3c(n2)CN(C(=O)c2cc(S(C)(=O)=O)ccc2OCC(C)C)C3)c1F` [Example 67, 2-(2 4-Difluoro-3-methylphenyl)-5-[5-methanesulfonyl-2-(2-methylpropoxy)benzoyl]-2H 4H 5H 6H-pyrrolo[3,4-c]pyrazole], the IC50 is below 100 nM.

As to `CC(C)COc1ccc(S(C)(=O)=O)cc1C(=O)N1Cc2cn(-c3cc(Cl)ccc3F)nc2C1` [Example 68, 2-(5-Chloro-2-fluorophenyl)-5-[5-methanesulfonyl-2-(2-methylpropoxy)benzoyl]-2H 4H 5H 6H-pyrrolo[3,4-c]pyrazole], the IC50 is below 100 nM.

Take `Cc1c(F)ccc(-n2cc3c(n2)CN(C(=O)c2cc(S(C)(=O)=O)ccc2N2CCC(F)(F)CC2)C3)c1F` [Example 70, 1-{2-[2-(2 4-Difluoro-3-methylphenyl)-2H 4H 5H 6H-pyrrolo[3,4-c]pyrazole-5-carbonyl]-4-methanesulfonylphenyl}-4 4-difluoropiperidine]: the IC50 is below 100 nM.

With `CS(=O)(=O)c1ccc(N2CCC(F)(F)CC2)c(C(=O)N2Cc3cn(-c4cc(Cl)ccc4F)nc3C2)c1` [Example 71, 1-{2-[2-(5-Chloro-2-fluorophenyl)-2H 4H 5H 6H-pyrrolo[3,4-c]pyrazole-5-carbonyl]-4-methanesulfonylphenyl}-4 4-difluoropiperidine], the IC50 is below 100 nM.

As to `CCS(=O)(=O)c1ccc(O[C@@H](C)C(F)(F)F)c(C(=O)N2Cc3cn(-c4cccc(C)c4)nc3C2)c1` [Example 72, 5-[5-(Ethanesulfonyl)-2-{[(2S)-1 1 1-trifluoropropan-2-yl]oxy}benzoyl]-2-(3-methylphenyl)-2H 4H 5H 6H-pyrrolo[3,4-c]pyrazole], the IC50 is below 100 nM.

Take `CCS(=O)(=O)c1ccc(OC(C)C)c(C(=O)N2Cc3cn(-c4ccccc4)nc3C2)c1` [Example 73, 5-[5-(Ethanesulfonyl)-2-(propan-2-yloxy)benzoyl]-2-phenyl-2H 4H 5H 6H-pyrrolo[3,4-c]pyrazole]: the IC50 is below 100 nM.

`CCS(=O)(=O)c1ccc(OC(C)C)c(C(=O)N2Cc3cn(-c4ccccc4F)nc3C2)c1` [Example 74, 5-[5-(Ethanesulfonyl)-2-(propan-2-yloxy)benzoyl]-2-(2-fluorophenyl)-2H 4H 5H 6H-pyrrolo[3,4-c]pyrazole]: the IC50 is 100 to 1000 nM.

For the origin of these results see patent US9708334B2, “Substituted 2,4,5,6-tetrahydropyrrolo[3,4-c]pyrazole and 4,5,6,7-tetrahydro-2H-pyrazolo[4,3-c]pyridine compounds as GlyT1 inhibitors” (DART NEUROSCIENCE (CAYMAN) LTD., priority 2014, dated 2017).
